Source: EP4555995B1, “COSMETIC USE OF A CYCLOPROPENE FATTY ACID FOR INHIBITING SCD ACTIVITY” (Laboratoires d'Anjou, priority 2023, dated 2025)
“And” between values parts separate entries of the source, which are not always exact repeats. Equal entries are not always repeated.

Columns and labels:
[1] = system: cellules de mélanome murin B16 stimulées par le NDP-MSH; test: Melanin synthesis in B16 melanoma cells stimulated by NDP-MSH (total melanin content, absorbance at 405 nm); format: cell-based; details: for Teneur en mélanine: NDP-MSH 0,1 µM, 72 h, percent of stimulated control, individual replicates
Excerpt: Dans la présente étude, l'effet blanchissant potentiel de l'acide sterculique a été évalué sur la synthèse de mélanine dans les cellules de mélanome murin B16 stimulées par un analogue stable de l'α-MSH, le NDP-MSH ([Nle4, D-Phe7]-α-Melanocyte Stimulating Hormone).
Le modèle de mélanocyte B16 constitue un modèle approprié pour la recherche d'effets inhibiteurs sur la production de mélanine car il est très réactif (par exemple à une stimulation NDP-MSH), ce qui entraîne une forte modulation de la production de mélanine entre les conditions basales et les conditions stimulées. Cette forte production de mélanine dans des conditions stimulées permet d'identifier les composés présentant des propriétés blanchissantes.
(§1) • Modèle biologique : • Type cellulaire : Lignée cellulaire de mélanome murin B16 (= mélanocytes B16) • Conditions de culture : 37°C, 5% CO2 • Milieu de culture : DMEM sans rouge de phénol optimisé pour l'essai, complété par du sérum de veau fœtal à 10%. • Composé testé : acide sterculique 50, 100 et 200 µM (dans 0.066% ethanol) • Essai préliminaire de cytotoxicité • Type de cellule : Cellules de mélanome murin B16 en milieu de culture • Durée d'incubation : 72 heures • Paramètres d'évaluation : Essai de réduction WST-8 et observations morphologiques à l'aide d'un microscope. Après traitement, les cellules sont incubées avec du WST-8 (sel de tétrazolium très soluble dans l'eau) réduit en un produit soluble dans l'eau de couleur orange (formazan) par la succinate déshydrogé-nase (enzyme mitochondriale). Cette transformation est proportionnelle au nombre de cellules vivantes et à leur activité métabolique. La densité optique (DO) des extraits à 450 nm a été enregistrée avec un spectromètre (VERSAmax, Molecular Devices). • Culture et traitement
Des cellules de mélanome B16 ont été ensemencées dans une plaque à 96 puits et incubées dans un milieu de culture pendant 24 heures.
Le milieu a ensuite été remplacé par du milieu de culture, en présence de NDP-MSH à 0,1 µM, contenant ou non : - le solvant témoin (éthanol testé à 0,066 %), • le composé d'essai acide sterculique testé à 50, 100 ou 200 µM, • l'acide kojique de référence testé à 0,5 mM ou 3 mM, • la combinaison du composé testé acide sterculique (50, 100 ou 200 µM) et de l'acide kojique à 0,5 mM.
Les cellules ont été incubées pendant 72 heures. En parallèle, une condition de contrôle non stimulée a été réalisée.
À la fin du temps d'incubation, l'absorbance à 405 nm a été mesurée et la teneur totale en mélanine (extracellulaire et intracellulaire) a été calculée pour chaque échantillon à l'aide d'une courbe standard de mélanine allant de 0,78 à 100 µg/ml.
Les valeurs de fond (interférences potentielles), mesurées dans les puits sans cellules, ont été soustraites aux valeurs calculées afin de considérer l'effet lié à la production de mélanine uniquement.
Les résultats ont été exprimés en pourcentage de mélanine par rapport au contrôle stimulé.

[2] = system: cellules de mélanome murin B16; test: Preliminary cytotoxicity test, WST-8 reduction assay; format: cell-based; details: for % de cellules viables: 72 h incubation, WST-8, individual replicates
Method: Avant cet essai, un essai de cytotoxicité a été réalisé à l'aide d'un essai standard de réduction WST-8, afin de déterminer les concentrations à tester dans cette étude.
as §1
L'erreur standard de la moyenne (sem) est une mesure de la distance probable entre la moyenne de l'échantillon et la moyenne réelle de la population. Elle est calculée en divisant l'écart-type par la racine carrée de la taille de l'échantillon. Pourcentage deviabilité: viabilité(%) = (ODéchantillon/ODcontrôle) × 100 [formula] [formula]

cellules B16 = test: Total protein quantity (DC Protein Assay) in B16 cells of the melanin test; format: cell-based, murin; details: 200 µM; concluded from protein content
Method: La quantité de protéines totales contenues dans les cellules et les surnageants de chaque réplicat a été mesurée à l'aide du kit DC Protein Assay contre une gamme de BSA avec un lecteur de microplaques à 750 nm (VERSAmax, Molecular Devices).
Kit : DC Protein Assay de BIO-RAD ref 500-0116.
Limite de détection basse : 0,2 mg/ml Limite de détection haute : 2 mg/ml Pour chaque condition de test, la quantité de mélanine a été normalisée par rapport à la quantité de protéines totales.

Structure (SMILES): O=c1cc(CO)occ1O [acide kojique, reference compound]
- inhibition relative ([1]; 0,5 mM, melanin synthesis in NDP-MSH-stimulated B16 cells): 65%
- inhibition relative ([1]; 3 mM, inhibition of the NDP-MSH effect on melanin synthesis): 89%
- Teneur en mélanine ([1]; KA 0,5 mM, listed as KA): 31,36483% and 49,33155% and 42,04703%
- Teneur en mélanine ([1]; KA 3 mM, listed as KA): 17,4540% and 20,7219% and 19,5020%

Structure (SMILES): CCCCCCCCC1=C(CCCCCCCC(=O)O)C1 [acide sterculique, 8-(2-octyl-cyclopropen-1-yl)-octanoic acid]
- effet sur la synthèse de mélanine ([1]; 50 µM, NDP-MSH-stimulated B16 cells): n'a eu aucun effet
- inhibition relative ([1]; 100 µM and 200 µM, strong, concentration-dependent inhibition of melanin synthesis): ≤ 93%
- inhibition de la teneur en mélanine ([1]; 100 µM, B16 cells (Fig 2)): inhibition marquée
- efficacy on melanin content compared with acide kojique à 3mM ([1]; 200 µM, B16 cells (Fig 2)): aussi efficace que l'acide kojique à 3mM
- inhibition de la teneur en mélanine ([1]; 200 µM, B16 cells (Fig 2)): inhibition marquée
- Teneur en mélanine ([1]; AS 50 µM, listed as AS): 103,1496% and 125,1337% and 106,9156%
- Teneur en mélanine ([1]; AS 100 µM, listed as AS): 57,21785% and 56,01605% and 61,96404%
- Teneur en mélanine ([1]; AS 200 µM, listed as AS): 13,64829% and 13,90374% and 21,16183%
- % de cellules viables ([2]; AcSter 12 µM): 112,1381% and 146,2746% and 110,4588%
- % de cellules viables ([2]; AcSter 37 µM): 82,74032% and 102,0043% and 72,79147%
- % de cellules viables ([2]; AcSter 111 µM): 112,2056% and 119,9363% and 106,0771%
- % de cellules viables ([2]; AcSter 333 µM): 26,41552% and 44,06769% and 52,32917%
- % de cellules viables ([2]; AcSter 1000 µM): 1,061339% and 1,910951% and 2,113628%
- % de cellules viables ([2]; AcSter 1,5 µM): 133,9982% and 119,6442% and 122,5711%
- effet sur la viabilité ([2]; up to 111 µM, B16 cells, WST-8 (Fig 1)): n'a pas eu d'effet sur la viabilité
- viabilité des cellules (cellules B16): n'inhibe pas la viabilité des cellules
